From patent US6433009B1, “Sulfonyl urea derivatives and their use in the control of interleukin-1 activity” (Pfizer Inc, priority 1997, dated 2002)

Row | melting point | SMILES
1 | 151.6 to 153.5 °C | CC(=O)c1cccc(S(=O)(=O)NC(=O)Nc2c(C(C)C)cccc2C(C)C)c1 [Example 56, 1-(3-Acetyl-benzenesulfonyl)-3-(2,6-diisopropyl-phenyl)-urea]
2 | 239 °C (dec.) | O=C(Nc1c2c(cc3c1CCC3)CCC2)NS(=O)(=O)c1ccc2[nH]cnc2c1 [Example 127, 1-(1H-Benzoimidazole-5-sulfonyl)-3-(1,2,3,5,6,7-hexahydro-s-indacen-4-yl)-urea]
